Measurements published in patent US20260365682A1, “MODULATORS OF TNF-ALPHA ACTIVITY” (Forward Therapeutics, Inc., priority 2022, published 2026).
Like-named read-outs stand apart in the source and are kept apart here.

Target: T1, TNF-α (Homo sapiens, UniProt P01375)
T1 construct: purchased R&D 210-TA-020/CF
Assay: TNF-α Induced HEK Blue Cellular Assay (secreted alkaline phosphatase expression, QUANTI-Blue)
Format: cell-based
Settings: HEK Blue TNFα reporter cells, TNF-α 100 μg/ml, 24 hrs at 37° C., inhibition of secreted alkaline phosphatase
Method in brief: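 HEK Blue TNFα reporter cells (10,000/well) in DMEM with 10% FBS received compound ([…] to 0.5 nM final) and TNF-α at […] final for 24 h at 37° C. Secreted alkaline phosphatase read with QUANTI-Blue at 620 nm. IC50 came from a 4-parameter logistic fit after normalising to unstimulated and stimulated DMSO controls.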

T1 sequence (P01375 77-233 limits assumed): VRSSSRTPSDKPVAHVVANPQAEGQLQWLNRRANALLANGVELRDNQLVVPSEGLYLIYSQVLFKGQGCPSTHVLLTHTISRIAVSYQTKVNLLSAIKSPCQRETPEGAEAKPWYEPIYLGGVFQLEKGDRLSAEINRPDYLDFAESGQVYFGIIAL

SMILES | IC50 (read-out: IC50 value) | IC50 (IC50 value)
[2H]C([2H])([2H])N1C(=O)c2cccc(OC(F)F)c2[C@H]2C[C@@H]1c1nc3ccc(C#C[C@@H](C)O)cc3n12 [Example 179, (7R,14R)-1-(difluoromethoxy)-11-((R)-3-hydroxybut-1-yn-1-yl)-6-(methyl-d3)-6,7-dihydro-7,14-methanobenzo[f]benzo[4,5]imidazo[1,2-a][1,4]diazocin-5(14H)-one] | 10 to 30 µM | 
[2H]C([2H])([2H])N1C(=O)c2cccc(OC(F)F)c2[C@H]2C[C@@H]1c1nc3ccc(C#CC4(C)CCN(C(C)=O)CC4)cc3n12 [Example 180, (7R,14R)-11-((1-acetyl-4-methylpiperidin-4-yl)ethynyl)-1-(difluoromethoxy)-6-(methyl-d3)-6,7-dihydro-7,14-methanobenzo[f]benzo[4,5]imidazo[1,2-a][1,4]diazocin-5(14H)-one] | 10 to 30 µM | 
[2H]C([2H])([2H])N1C(=O)c2cccc(OC(F)F)c2[C@H]2C[C@@H]1c1nc3ccc(C#CC4(C)CCN(C(=O)C5CC5)CC4)cc3n12 [Example 181, (7R,14R)-11-((1-(cyclopropanecarbonyl)-4-methylpiperidin-4-yl)ethynyl)-1-(difluoromethoxy)-6-(methyl-d3)-6,7-dihydro-7,14-methanobenzo[f]benzo[4,5]imidazo[1,2-a][1,4]diazocin-5(14H)-one] | 10 to 30 µM | 
[2H]C([2H])([2H])N1C(=O)c2cccc(OC(F)F)c2[C@H]2C[C@@H]1c1nc3ccc(C#CC4(C)CCN(C(=O)C5(C)CC5)C4)cc3n12 (stereo partly drawn) [Example 182, (7R,14R)-1-(difluoromethoxy)-6-(methyl-d3)-11-((3-methyl-1-(1-methylcyclopropane-1-carbonyl)pyrrolidin-3-yl)ethynyl)-6,7-dihydro-7,14-methanobenzo[f]benzo[4,5]imidazo[1,2-a][1,4]diazocin-5(14H)-one] | 0.1 to 1 µM | 
[2H]C([2H])([2H])N1C(=O)c2cccc(OC(F)F)c2[C@H]2C[C@@H]1c1nc3ccc(C#CC4CCCN(C(C)=O)C4)cc3n12 (stereo partly drawn) [Example 183, (7R,14R)-11-((1-acetylpiperidin-3-yl)ethynyl)-1-(difluoromethoxy)-6-(methyl-d3)-6,7-dihydro-7,14-methanobenzo[f]benzo[4,5]imidazo[1,2-a][1,4]diazocin-5(14H)-one] | < 0.1 µM | 
[2H]C([2H])([2H])N1C(=O)c2cccc(OC(F)F)c2[C@H]2C[C@@H]1c1nc3ccc(C#CC4CCCN(C(=O)C5CC5)C4)cc3n12 (stereo partly drawn) [Example 184, (7R,14R)-11-((1-(cyclopropanecarbonyl)piperidin-3-yl)ethynyl)-1-(difluoromethoxy)-6-(methyl-d3)-6,7-dihydro-7,14-methanobenzo[f]benzo[4,5]imidazo[1,2-a][1,4]diazocin-5(14H)-one] | < 0.1 µM | 
[2H]C([2H])([2H])N1C(=O)c2cccc(OC(F)F)c2[C@H]2C[C@@H]1c1nc3ccc(C#CC4CCN(S(C)(=O)=O)CC4)cc3n12 [Example 185, (7R,14R)-1-(difluoromethoxy)-6-(methyl-d3)-11-((1-(methylsulfonyl)piperidin-4-yl)ethynyl)-6,7-dihydro-7,14-methanobenzo[f]benzo[4,5]imidazo[1,2-a][1,4]diazocin-5(14H)-one] | < 0.1 µM | 
[2H]C([2H])([2H])N1C(=O)c2cccc(OC(F)F)c2[C@H]2C[C@@H]1c1nc3ccc(C#CC4CCN(C(=O)C(C)(C)O)CC4)cc3n12 [Example 186, (7R,14R)-1-(difluoromethoxy)-11-((1-(2-hydroxy-2-methylpropanoyl)piperidin-4-yl)ethynyl)-6-(methyl-d3)-6,7-dihydro-7,14-methanobenzo[f]benzo[4,5]imidazo[1,2-a][1,4]diazocin-5(14H)-one] | < 0.1 µM | 
[2H]C([2H])([2H])N1C(=O)c2cccc(OC(F)F)c2[C@H]2C[C@@H]1c1nc3ccc(C#CC4CCN(C(=O)C5(O)CC5)CC4)cc3n12 [Example 187, (7R,14R)-1-(difluoromethoxy)-11-((1-(1-hydroxycyclopropane-1-carbonyl)piperidin-4-yl)ethynyl)-6-(methyl-d3)-6,7-dihydro-7,14-methanobenzo[f]benzo[4,5]imidazo[1,2-a][1,4]diazocin-5(14H)-one] | < 0.1 µM | 
[2H]C([2H])([2H])N1C(=O)c2cccc(OC(F)F)c2[C@H]2C[C@@H]1c1nc3ccc(C#CC4(C(F)F)CC4)cc3n12 [Example 188, (7R,14R)-1-(difluoromethoxy)-11-((1-(difluoromethyl)cyclopropyl)ethynyl)-6-(methyl-d3)-6,7-dihydro-7,14-methanobenzo[f]benzo[4,5]imidazo[1,2-a][1,4]diazocin-5(14H)-one] | 0.1 to 1 µM | 
[2H]C([2H])([2H])N1C(=O)c2cccc(OC(F)F)c2[C@H]2C[C@@H]1c1nc3ccc(C#CC4(C)CCN(C(=O)C5CC5)C4)cc3n12 (stereo partly drawn) [Example 189, (7R,14R)-11-((1-(cyclopropanecarbonyl)-3-methylpyrrolidin-3-yl)ethynyl)-1-(difluoromethoxy)-6-(methyl-d3)-6,7-dihydro-7,14-methanobenzo[f]benzo[4,5]imidazo[1,2-a][1,4]diazocin-5(14H)-one] | 10 to 30 µM | 
[2H]C([2H])([2H])N1C(=O)c2cccc(OC(F)F)c2[C@H]2C[C@@H]1c1nc3ccc(C#CC4(C)CCN(C(=O)C(C)(C)C)C4)cc3n12 (stereo partly drawn) [Example 190, (7R,14R)-1-(difluoromethoxy)-6-(methyl-d3)-11-((3-methyl-1-pivaloylpyrrolidin-3-yl)ethynyl)-6,7-dihydro-7,14-methanobenzo[f]benzo[4,5]imidazo[1,2-a][1,4]diazocin-5(14H)-one] | 0.1 to 1 µM | 
[2H]C([2H])([2H])N1C(=O)c2cccc(OC(F)F)c2[C@H]2C[C@@H]1c1nc3ccc(C#CC(C)(C)CO)cc3n12 [Example 191, (7R,14R)-1-(difluoromethoxy)-11-(4-hydroxy-3,3-dimethylbut-1-yn-1-yl)-6-(methyl-d3)-6,7-dihydro-7,14-methanobenzo[f]benzo[4,5]imidazo[1,2-a][1,4]diazocin-5(14H)-one] | 10 to 30 µM | 
[2H]C([2H])([2H])N1C(=O)c2cccc(OC(F)F)c2[C@H]2C[C@@H]1c1nc3ccc(C#CC4(C)CCN(C(=O)C(C)(C)O)C4)cc3n12 (stereo partly drawn) [Example 192, (7R,14R)-1-(difluoromethoxy)-11-((1-(2-hydroxy-2-methylpropanoyl)-3-methylpyrrolidin-3-yl)ethynyl)-6-(methyl-d3)-6,7-dihydro-7,14-methanobenzo[f]benzo[4,5]imidazo[1,2-a][1,4]diazocin-5(14H)-one] | 10 to 30 µM | 
[2H]C([2H])([2H])N1C(=O)c2cccc(OC(F)F)c2[C@H]2C[C@@H]1c1nc3ccc(C#CC4CN(C(=O)C(C)(C)C#N)C4)cc3n12 [Example 193, 3-(3-(((7R,14R)-1-(difluoromethoxy)-6-(methyl-d3)-5-oxo-5,6,7,14-tetrahydro-7,14-methanobenzo[f]benzo[4,5]imidazo[1,2-a][1,4]diazocin-11-yl)ethynyl)azetidin-1-yl)-2,2-dimethyl-3-oxopropanenitrile] | 0.1 to 1 µM | 
[2H]C([2H])([2H])N1C(=O)c2cccc(OC(F)F)c2[C@H]2C[C@@H]1c1nc3ccc(C#CC4CN(C(=O)C5CC5(F)F)C4)cc3n12 (stereo partly drawn) [Example 194, (7R,14R)-11-((1-(2,2-difluorocyclopropane-1-carbonyl)azetidin-3-yl)ethynyl)-1-(difluoromethoxy)-6-(methyl-d3)-6,7-dihydro-7,14-methanobenzo[f]benzo[4,5]imidazo[1,2-a][1,4]diazocin-5(14H)-one] | 10 to 30 µM | 
[2H]C([2H])([2H])N1C(=O)c2cccc(OC(F)F)c2[C@H]2C[C@@H]1c1nc3ccc(C#CC4CN(C(=O)C5(O)CC5)C4)cc3n12 [Example 195, (7R,14R)-1-(difluoromethoxy)-11-((1-(1-hydroxycyclopropane-1-carbonyl)azetidin-3-yl)ethynyl)-6-(methyl-d3)-6,7-dihydro-7,14-methanobenzo[f]benzo[4,5]imidazo[1,2-a][1,4]diazocin-5(14H)-one] | < 0.1 µM | 
[2H]C([2H])([2H])N1C(=O)c2cccc(OC(F)F)c2[C@H]2C[C@@H]1c1nc3ccc(C#CC4CC4(F)F)cc3n12 (stereo partly drawn) [Example 196, (7R,14R)-11-((2,2-difluorocyclopropyl)ethynyl)-1-(difluoromethoxy)-6-(methyl-d3)-6,7-dihydro-7,14-methanobenzo[f]benzo[4,5]imidazo[1,2-a][1,4]diazocin-5(14H)-one] | 0.1 to 1 µM | 
[2H]C([2H])([2H])N1C(=O)c2cccc(OC(F)F)c2[C@H]2C[C@@H]1c1nc3ccc(C#CC4CN(CC(C)(C)O)C4)cc3n12 [Example 197, (7R,14R)-1-(difluoromethoxy)-11-((1-(2-hydroxy-2-methylpropyl)azetidin-3-yl)ethynyl)-6-(methyl-d3)-6,7-dihydro-7,14-methanobenzo[f]benzo[4,5]imidazo[1,2-a][1,4]diazocin-5(14H)-one] | 10 to 30 µM | 
[2H]C([2H])([2H])N1C(=O)c2cccc(OC(F)F)c2[C@H]2C[C@@H]1c1nc3ccc(C#CC4CN(CC(F)F)C4)cc3n12 [Example 198, (7R,14R)-11-((1-(2,2-difluoroethyl)azetidin-3-yl)ethynyl)-1-(difluoromethoxy)-6-(methyl-d3)-6,7-dihydro-7,14-methanobenzo[f]benzo[4,5]imidazo[1,2-a][1,4]diazocin-5(14H)-one] |  | 10 to 30 µM
[2H]C([2H])([2H])N1C(=O)c2cccc(OC(F)F)c2[C@H]2C[C@@H]1c1nc3ccc(C#CC4CCN(C(=O)C5CC5)C4)cc3n12 (stereo partly drawn) [Example 201, (7R,14R)-11-((1-(cyclopropanecarbonyl)pyrrolidin-3-yl)ethynyl)-1-(difluoromethoxy)-6-(methyl-d3)-6,7-dihydro-7,14-methanobenzo[f]benzo[4,5]imidazo[1,2-a][1,4]diazocin-5(14H)-one] | 10 to 30 µM | 
